# From patent US20090093509A1, “Methods and Compositions for the Treatment of Pruritus” (priority 2007, published 2009)
# Counter-ions that a name gives are not always drawn.
# Experiment: pH of aqueous solution
# Assay type: physicochemical
# Procedure: The pH of the formulations of the invention are greater than 3 and less than 7. For example, the pH can be 3-7, 3-6, 4-7, 4-6, or 4-5. The pH of the solution and the measured pH of the topical composition may not be the same. For the purposes of this specification, either pH may be relevant but it is preferred that the pH is defined as that in the aqueous phase and not in the final cream. The pH of a 0.1% w/v aqueous solution of nalmefene hydrochloride is 6.13 at 22.5° C.: the corresponding values for 1% and 5% solutions are 5.76 and 4.66.
compound,measurement,setting,value
"C=C1CC[C@@]2(O)[C@H]3Cc4ccc(O)c5c4[C@@]2(CCN3CC2CC2)[C@H]1O5 [nalmefene hydrochloride, 6-methylene-6-desoxy-N-cyclopropylmethyl-14-hydroxydihydronormorphine]",pH of aqueous solution,"0.1% w/v aqueous solution, 22.5° C.",6.13
same,pH of aqueous solution,1% solution,5.76
same,pH of aqueous solution,5% solution,4.66
